Counter-ions that a name gives are not always drawn.
Assays:
Caspase 7 = target: T1, Caspase 7 (Homo sapiens, UniProt P55210); assay: Caspase 7 activity in ammonium sulfate at various concentrations
T1 sequence (P55210 24-198 limits assumed): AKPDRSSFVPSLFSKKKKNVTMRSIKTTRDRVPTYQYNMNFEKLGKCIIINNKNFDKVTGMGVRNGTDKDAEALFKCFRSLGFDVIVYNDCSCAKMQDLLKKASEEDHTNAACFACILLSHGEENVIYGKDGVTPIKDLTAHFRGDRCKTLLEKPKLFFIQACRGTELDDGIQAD
T1 sequence (P55210 207-303 limits assumed): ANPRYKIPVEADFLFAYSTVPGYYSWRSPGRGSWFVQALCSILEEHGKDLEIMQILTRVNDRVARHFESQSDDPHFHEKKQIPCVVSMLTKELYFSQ
Protocol: (§1) The control buffer used to carry out specificity reactions is as follows: 20 mM PIPES pH 7.2, 1 mM EDTA, 0.1% CHAPS, 10% sucrose, 10 mM DTT. Various N-acetyl-tetrapeptide-7-amino-trifluoromethylcoumarin substrates at 100 uM were assayed with the different commercially available caspases. 2.5 mM stock substrate concentrations were prepared in DMSO and subsequently diluted to 200 uM with control buffer.
(§2) 300 U stock solutions of the enzymes in interest were prepared in the control buffer listed above. The assay was carried out as follows: 96 well black Dynex microfluorometer 1 plate was used. Total Assay volume was 100 ul. 7-amino-trifluoromethyl coumarin (AFC) was excited at 400 nm, and fluorescence emission was monitored at 505 nm kinetically for the duration of 1 hour (h) wherein AFC was cleaved from the peptide.
(§3) 50 ul of 200 uM stock substrate was added first (final assay concentration 100 uM). 40 ul of the control buffer was then added. The assay was initiated with the addition of 10 ul of the appropriate 300 U caspase stock (30 U in final assay). A linear rate (relative fluorescence U/s) was calculated from the entire duration of the experiment and graphed for each enzyme verses the various substrates tested.
(§4) The substrates in ammonium sulfate using Caspase 9 was 25 uM Ac-LEHD-Afc (SEQ ID NO: 5) and for Caspase 3 was 25 uM Ac-DEVD-Afc (SEQ ID NO: 1).

Caspase 9 = target: T2, Caspase 9 (Homo sapiens, UniProt P55211); assay: Caspase 9 cleavage of Ac-LEHD-AFC in buffers containing Hofmeister salts; format: biochemical
T2 construct: purchased
T2 sequence (P55211 1-315 limits assumed): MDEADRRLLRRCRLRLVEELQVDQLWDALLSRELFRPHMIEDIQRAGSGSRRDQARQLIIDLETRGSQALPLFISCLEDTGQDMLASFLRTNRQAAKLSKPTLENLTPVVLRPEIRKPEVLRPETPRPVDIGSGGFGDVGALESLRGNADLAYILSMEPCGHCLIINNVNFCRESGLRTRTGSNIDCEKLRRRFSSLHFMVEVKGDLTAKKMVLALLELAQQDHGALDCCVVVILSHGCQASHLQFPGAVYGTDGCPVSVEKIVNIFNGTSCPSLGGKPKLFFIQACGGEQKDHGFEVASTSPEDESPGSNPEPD
T2 sequence (P55211 331-416 limits assumed): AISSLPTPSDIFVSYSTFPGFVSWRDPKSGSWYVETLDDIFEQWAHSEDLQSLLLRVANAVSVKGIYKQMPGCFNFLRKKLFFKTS

Caspase 1 = target: T3, Caspase 1 (Homo sapiens, UniProt P29466); assay: Caspase 1 activity in ammonium sulfate at various concentrations
T3 sequence (P29466 120-297 limits assumed): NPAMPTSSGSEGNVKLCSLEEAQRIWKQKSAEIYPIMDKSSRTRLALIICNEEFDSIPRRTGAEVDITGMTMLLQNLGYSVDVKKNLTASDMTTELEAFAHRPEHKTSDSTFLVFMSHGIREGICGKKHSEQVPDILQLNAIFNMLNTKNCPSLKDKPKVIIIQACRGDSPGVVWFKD
T3 sequence (P29466 317-404 limits assumed): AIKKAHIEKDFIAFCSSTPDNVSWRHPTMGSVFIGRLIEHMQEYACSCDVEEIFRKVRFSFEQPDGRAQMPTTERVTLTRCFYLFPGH
Protocol: as §1, §2, §3, §4

Caspase 3 = target: T4, Caspase 3 (Homo sapiens, UniProt P42574); assay: Caspase 3 cleavage of Ac-DEVD-Afc in ammonium sulfate at various concentrations; details: 25 uM Ac-DEVD-Afc
T4 sequence (P42574 29-175 limits assumed): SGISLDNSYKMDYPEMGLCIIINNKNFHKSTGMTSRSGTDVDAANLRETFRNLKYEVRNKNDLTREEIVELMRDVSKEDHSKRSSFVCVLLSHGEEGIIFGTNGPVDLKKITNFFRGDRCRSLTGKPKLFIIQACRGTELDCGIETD
T4 sequence (P42574 176-277 limits assumed): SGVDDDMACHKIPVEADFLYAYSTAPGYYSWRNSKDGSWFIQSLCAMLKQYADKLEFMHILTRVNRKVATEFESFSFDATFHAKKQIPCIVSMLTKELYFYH
Protocol: as §1, §2, §3, §4

[1] = target: Herpes simplex virus 1 protease (Human herpesvirus 1, UniProt P10210); details: 1M Na citrate; cited from earlier work
Chain of Herpes simplex virus 1 protease (P10210 1-247): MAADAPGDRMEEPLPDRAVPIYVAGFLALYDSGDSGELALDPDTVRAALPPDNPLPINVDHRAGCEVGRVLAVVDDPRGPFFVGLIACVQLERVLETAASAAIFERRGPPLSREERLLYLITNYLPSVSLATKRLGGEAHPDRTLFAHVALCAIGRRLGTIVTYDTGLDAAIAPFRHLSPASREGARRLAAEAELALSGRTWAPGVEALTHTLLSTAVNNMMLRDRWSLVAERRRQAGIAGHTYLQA

In the case of N.N.O=S(=O)(O)O [ammonium sulfate], the “effect of salt on Caspase 7 activity” value (Caspase 7) is reported as “no effect”, the “Caspase 9 activity increase” value (Caspase 9; sulfate concentrations from 0 to 1.6 M, 25 uM Ac-LEHD-Afc) is reported as 1400 fold and the “effect of salt on Caspase 1 activity” value (Caspase 1) is reported as “no effect”. For the same molecule, the “effect of salt on Caspase 3 activity” value (Caspase 3) was “minimal effect”.

In the case of O=C(O)CC(O)(CC(=O)O)C(=O)O [citrate, Na citrate], the “activity of Caspase 9 relative to activity in 0.8 M bromide” value (Caspase 9; 0.8 M salt in control buffer pH 7.2, 100 uM N-Ac-LEHD-Afc, 30 U Caspase 9/well (0.72 uM)) is given as 10,000 fold and the “increase in activity of Herpes simplex virus 1 protease” value [1] is given as 860 fold.

In the case of O=P(O)(O)O [sodium phosphate], the “Caspase 9 activity increase” value (Caspase 9; phosphate concentrations from 0 to 1 M, 100 uM Ac-LEHD-Afc) is reported as 2200 fold.
